Values joined by “and” are separate entries in the source; they are usually repeats but may differ in a detail not shown here. Identical values can stand only once.
Columns and labels:
[1] = target: MAPKAP-K2 (Homo sapiens, UniProt P49137); assay: Kinase panel assay, MAPKAP-K2; type: biochemical; conditions: 1 μM inhibitor, 0.1 mM ATP, average of triplicate
[2] = target: T1, PDK1 (Homo sapiens, UniProt O15530); conditions: literature [21]; cited from earlier work
T1 sequence (O15530 1-556): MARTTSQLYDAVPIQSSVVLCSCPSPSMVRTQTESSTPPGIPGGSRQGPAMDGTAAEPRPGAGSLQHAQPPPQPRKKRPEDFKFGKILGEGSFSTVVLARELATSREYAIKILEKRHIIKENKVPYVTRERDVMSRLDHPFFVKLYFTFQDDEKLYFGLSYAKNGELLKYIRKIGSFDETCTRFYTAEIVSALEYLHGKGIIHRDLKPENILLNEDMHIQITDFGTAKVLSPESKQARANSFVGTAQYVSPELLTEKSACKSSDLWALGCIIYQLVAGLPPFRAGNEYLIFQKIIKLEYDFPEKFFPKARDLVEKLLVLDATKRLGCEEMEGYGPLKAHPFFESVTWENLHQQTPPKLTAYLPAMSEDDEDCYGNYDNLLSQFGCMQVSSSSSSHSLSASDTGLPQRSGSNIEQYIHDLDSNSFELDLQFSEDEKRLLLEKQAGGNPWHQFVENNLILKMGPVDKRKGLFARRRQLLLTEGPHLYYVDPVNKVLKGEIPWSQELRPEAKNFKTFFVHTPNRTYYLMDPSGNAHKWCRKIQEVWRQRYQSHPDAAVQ

[3] = target: ROCK-II (Homo sapiens, UniProt O75116); assay: Kinase panel assay, ROCK-II; type: biochemical; conditions: 1 μM inhibitor, 0.1 mM ATP, average of triplicate
[4] = target: PKA (Homo sapiens, UniProt P17612); assay: Kinase panel assay, PKA; type: biochemical; conditions: 1 μM inhibitor, 0.1 mM ATP, average of triplicate
[5] = target: S6K1 (Homo sapiens, UniProt P23443); assay: Kinase panel assay, S6K1; type: biochemical; conditions: 1 μM inhibitor, 0.1 mM ATP, average of triplicate
[6] = target: CSK (Homo sapiens, UniProt P41240); assay: Kinase panel assay, CSK; type: biochemical; conditions: 1 μM inhibitor, 0.1 mM ATP, average of triplicate
[7] = target: SAPK4/p38δ (Homo sapiens, UniProt O15264); assay: Kinase panel assay, SAPK4/p38δ; type: biochemical; conditions: 1 μM inhibitor, 0.1 mM ATP, average of triplicate
[8] = target: DYRK1α (Homo sapiens, UniProt Q13627); assay: Kinase panel assay, DYRK1α; type: biochemical; conditions: 1 μM inhibitor, 0.1 mM ATP, average of triplicate
[9] = target: T1, PDK1; assay: PDK1 protein kinase assay with PDK1tide substrate and [γ-32P]ATP; type: biochemical; conditions: 1 μM inhibitor, 0.1 mM ATP, average of triplicate
Description: (§1) Other protein kinases employed in Table 5, were assayed as described previously.
A structure-based sequence alignment of known kinase structures was obtained from, which was used to validate the sequence-based sequence alignment (Table 5).

[10] = target: PKBΔPH (Homo sapiens, UniProt P31749); assay: biochemical; conditions: read-out: percentage of kinase activity compared to control incubations, PKBΔPH
Description: as §1

[11] = target: PKCα (Homo sapiens, UniProt P17252); assay: Kinase panel assay, PKCα; type: biochemical; conditions: 1 μM inhibitor, 0.1 mM ATP, average of triplicate
[12] = tested on: AMPK; assay: Kinase panel assay, AMPK; type: biochemical; conditions: 1 μM inhibitor, 0.1 mM ATP, average of triplicate
Description: as §1

[13] = target: MAPKAP-K1a (Homo sapiens, UniProt Q15418); assay: Kinase panel assay, MAPKAP-K1a; type: biochemical; conditions: 1 μM inhibitor, 0.1 mM ATP, average of triplicate
[14] = target: MSK1 (Homo sapiens, UniProt O75582); assay: Kinase panel assay, MSK1; type: biochemical; conditions: 1 μM inhibitor, 0.1 mM ATP, average of triplicate
[15] = target: MKK1 (Homo sapiens, UniProt Q02750); assay: Kinase panel assay, MKK1; type: biochemical; conditions: 1 μM inhibitor, 0.1 mM ATP, average of triplicate
[16] = target: SAPK2β/p38β2 (Homo sapiens, UniProt Q15759); assay: Kinase panel assay, SAPK2β/p38β2; type: biochemical; conditions: 1 μM inhibitor, 0.1 mM ATP, average of triplicate
[17] = target: T2, CHK1 (Homo sapiens, UniProt O14757); conditions: literature [20]; cited from earlier work
T2 sequence (O14757 1-476): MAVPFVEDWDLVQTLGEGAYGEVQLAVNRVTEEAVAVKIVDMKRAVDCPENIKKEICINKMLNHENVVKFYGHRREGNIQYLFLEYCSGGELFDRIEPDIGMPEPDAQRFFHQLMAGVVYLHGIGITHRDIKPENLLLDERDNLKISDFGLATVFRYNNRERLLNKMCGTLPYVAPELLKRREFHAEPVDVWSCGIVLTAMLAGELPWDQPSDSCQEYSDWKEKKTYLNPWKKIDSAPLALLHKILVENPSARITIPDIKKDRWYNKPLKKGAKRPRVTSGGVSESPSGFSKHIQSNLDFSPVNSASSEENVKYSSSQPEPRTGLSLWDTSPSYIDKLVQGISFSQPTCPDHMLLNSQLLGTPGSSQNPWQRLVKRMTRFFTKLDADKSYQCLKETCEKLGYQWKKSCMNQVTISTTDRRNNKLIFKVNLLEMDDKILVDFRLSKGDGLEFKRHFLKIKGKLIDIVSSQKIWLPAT

[18] = target: PHOS.KINASE (Oryctolagus cuniculus, UniProt P00518); assay: Kinase panel assay, phosphorylase kinase; type: biochemical; conditions: 1 μM inhibitor, 0.1 mM ATP, average of triplicate
[19] = target: GSK3β (Homo sapiens, UniProt P49841); assay: Kinase panel assay, GSK3β; type: biochemical; conditions: 1 μM inhibitor, 0.1 mM ATP, average of triplicate
[20] = target: SAPK2α/p38 (Homo sapiens, UniProt Q16539); assay: Kinase panel assay, SAPK2α/p38; type: biochemical; conditions: 1 μM inhibitor, 0.1 mM ATP, average of triplicate
[21] = target: CK2 (Homo sapiens, UniProt P68400); assay: Kinase panel assay, CK2; type: biochemical; conditions: 1 μM inhibitor, 0.1 mM ATP, average of triplicate
[22] = target: PRAK (Homo sapiens, UniProt Q8IW41); assay: Kinase panel assay, PRAK; type: biochemical; conditions: 1 μM inhibitor, 0.1 mM ATP, average of triplicate
[23] = target: NEK6 (Homo sapiens, UniProt Q9HC98); assay: Kinase panel assay, NEK6; type: biochemical; conditions: 1 μM inhibitor, 0.1 mM ATP, average of triplicate
[24] = tested on: CK1; assay: Kinase panel assay, CK1; type: biochemical; conditions: 1 μM inhibitor, 0.1 mM ATP, average of triplicate
[25] = target: T2, CHK1; assay: Kinase panel assay, CHK1; type: biochemical; conditions: 1 μM inhibitor, 0.1 mM ATP, average of triplicate
[26] = target: Lck (Homo sapiens, UniProt P06239); assay: Kinase panel assay, Lck; type: biochemical; conditions: 1 μM inhibitor, 0.1 mM ATP, average of triplicate
[27] = target: SGK1 (Homo sapiens, UniProt O00141); assay: Kinase panel assay, SGK1; type: biochemical; conditions: 1 μM inhibitor, 0.1 mM ATP, average of triplicate
[28] = target: JNKSAPK1c (Homo sapiens, UniProt P45983); assay: Kinase panel assay, JNKSAPK1c; type: biochemical; conditions: 1 μM inhibitor, 0.1 mM ATP, average of triplicate
Sequence of JNKSAPK1c (P45983 whole entry): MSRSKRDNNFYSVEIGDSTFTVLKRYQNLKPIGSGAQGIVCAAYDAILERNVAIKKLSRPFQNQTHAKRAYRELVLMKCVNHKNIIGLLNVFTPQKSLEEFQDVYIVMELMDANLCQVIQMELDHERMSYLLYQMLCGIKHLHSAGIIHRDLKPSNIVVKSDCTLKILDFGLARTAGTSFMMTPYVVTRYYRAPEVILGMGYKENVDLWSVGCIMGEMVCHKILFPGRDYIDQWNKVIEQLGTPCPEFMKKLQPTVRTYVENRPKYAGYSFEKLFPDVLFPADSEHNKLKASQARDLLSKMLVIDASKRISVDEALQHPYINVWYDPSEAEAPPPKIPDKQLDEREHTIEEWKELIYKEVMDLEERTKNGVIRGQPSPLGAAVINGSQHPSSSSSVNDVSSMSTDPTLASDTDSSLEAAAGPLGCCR

Sequence of MSK1 (O75582 whole entry): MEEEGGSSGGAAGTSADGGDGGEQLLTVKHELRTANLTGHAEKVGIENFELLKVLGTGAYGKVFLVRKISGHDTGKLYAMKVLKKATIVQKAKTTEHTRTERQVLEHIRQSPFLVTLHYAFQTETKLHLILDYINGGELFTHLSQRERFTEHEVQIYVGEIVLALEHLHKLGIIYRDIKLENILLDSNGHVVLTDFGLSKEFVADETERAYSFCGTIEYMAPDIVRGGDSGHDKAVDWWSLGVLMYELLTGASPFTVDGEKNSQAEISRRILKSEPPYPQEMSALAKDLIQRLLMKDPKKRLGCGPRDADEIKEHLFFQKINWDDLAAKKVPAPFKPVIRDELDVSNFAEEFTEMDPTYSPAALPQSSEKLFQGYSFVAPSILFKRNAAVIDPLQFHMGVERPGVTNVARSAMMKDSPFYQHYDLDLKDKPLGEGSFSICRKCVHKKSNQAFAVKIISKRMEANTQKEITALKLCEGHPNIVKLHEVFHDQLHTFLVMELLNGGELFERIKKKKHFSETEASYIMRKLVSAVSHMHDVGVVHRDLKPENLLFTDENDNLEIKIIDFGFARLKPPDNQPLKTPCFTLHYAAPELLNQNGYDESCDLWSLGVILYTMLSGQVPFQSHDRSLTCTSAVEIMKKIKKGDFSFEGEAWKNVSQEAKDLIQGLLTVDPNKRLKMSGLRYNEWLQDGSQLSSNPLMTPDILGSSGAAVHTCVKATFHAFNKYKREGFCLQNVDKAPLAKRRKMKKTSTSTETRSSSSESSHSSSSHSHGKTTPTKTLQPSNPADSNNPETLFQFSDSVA
Sequence of SGK1 (O00141 whole entry): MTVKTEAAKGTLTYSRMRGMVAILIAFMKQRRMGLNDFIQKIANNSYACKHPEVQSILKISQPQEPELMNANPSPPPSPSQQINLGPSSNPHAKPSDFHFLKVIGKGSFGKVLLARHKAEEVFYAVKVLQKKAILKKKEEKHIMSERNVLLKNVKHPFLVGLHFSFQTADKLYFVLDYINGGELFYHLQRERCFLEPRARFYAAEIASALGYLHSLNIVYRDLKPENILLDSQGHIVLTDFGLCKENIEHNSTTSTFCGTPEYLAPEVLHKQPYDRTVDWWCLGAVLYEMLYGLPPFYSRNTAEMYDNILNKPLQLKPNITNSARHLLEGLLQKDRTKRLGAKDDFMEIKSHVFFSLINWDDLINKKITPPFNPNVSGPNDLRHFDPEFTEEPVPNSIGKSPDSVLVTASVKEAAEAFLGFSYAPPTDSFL
Sequence of NEK6 (Q9HC98 whole entry, species assumed): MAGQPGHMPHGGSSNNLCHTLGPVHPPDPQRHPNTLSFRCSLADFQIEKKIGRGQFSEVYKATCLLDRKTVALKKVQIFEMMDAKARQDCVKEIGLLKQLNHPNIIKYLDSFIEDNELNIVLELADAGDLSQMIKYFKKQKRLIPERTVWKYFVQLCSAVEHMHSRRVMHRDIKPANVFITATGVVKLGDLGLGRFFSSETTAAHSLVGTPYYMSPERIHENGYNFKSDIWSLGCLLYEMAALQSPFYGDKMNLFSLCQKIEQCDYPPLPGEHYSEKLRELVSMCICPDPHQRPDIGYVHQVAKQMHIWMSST
Sequence of MKK1 (Q02750 whole entry, species assumed): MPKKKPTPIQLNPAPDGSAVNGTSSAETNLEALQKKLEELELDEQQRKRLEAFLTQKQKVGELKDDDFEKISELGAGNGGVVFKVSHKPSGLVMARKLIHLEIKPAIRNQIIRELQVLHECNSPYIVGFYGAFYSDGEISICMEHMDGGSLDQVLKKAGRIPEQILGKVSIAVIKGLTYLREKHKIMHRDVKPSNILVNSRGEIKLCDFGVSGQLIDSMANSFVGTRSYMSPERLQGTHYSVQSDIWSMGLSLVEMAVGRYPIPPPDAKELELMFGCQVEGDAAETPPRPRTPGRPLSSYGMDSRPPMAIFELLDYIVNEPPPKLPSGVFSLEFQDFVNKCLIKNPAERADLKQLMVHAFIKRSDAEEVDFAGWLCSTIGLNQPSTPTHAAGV
Sequence of Lck (P06239 whole entry, species assumed): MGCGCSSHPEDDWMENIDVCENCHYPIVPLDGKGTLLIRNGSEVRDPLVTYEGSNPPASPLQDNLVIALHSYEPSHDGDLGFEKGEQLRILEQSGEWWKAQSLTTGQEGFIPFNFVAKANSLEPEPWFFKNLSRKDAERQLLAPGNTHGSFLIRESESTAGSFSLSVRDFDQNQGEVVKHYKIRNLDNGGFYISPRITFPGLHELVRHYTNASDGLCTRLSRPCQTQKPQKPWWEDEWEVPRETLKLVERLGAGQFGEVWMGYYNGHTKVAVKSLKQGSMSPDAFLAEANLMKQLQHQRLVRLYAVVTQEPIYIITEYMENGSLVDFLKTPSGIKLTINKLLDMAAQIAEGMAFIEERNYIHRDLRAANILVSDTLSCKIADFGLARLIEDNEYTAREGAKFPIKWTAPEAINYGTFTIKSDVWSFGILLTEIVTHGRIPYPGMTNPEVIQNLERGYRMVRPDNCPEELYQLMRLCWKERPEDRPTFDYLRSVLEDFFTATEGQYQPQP
Sequence of MAPKAP-K1a (Q15418 whole entry, species assumed): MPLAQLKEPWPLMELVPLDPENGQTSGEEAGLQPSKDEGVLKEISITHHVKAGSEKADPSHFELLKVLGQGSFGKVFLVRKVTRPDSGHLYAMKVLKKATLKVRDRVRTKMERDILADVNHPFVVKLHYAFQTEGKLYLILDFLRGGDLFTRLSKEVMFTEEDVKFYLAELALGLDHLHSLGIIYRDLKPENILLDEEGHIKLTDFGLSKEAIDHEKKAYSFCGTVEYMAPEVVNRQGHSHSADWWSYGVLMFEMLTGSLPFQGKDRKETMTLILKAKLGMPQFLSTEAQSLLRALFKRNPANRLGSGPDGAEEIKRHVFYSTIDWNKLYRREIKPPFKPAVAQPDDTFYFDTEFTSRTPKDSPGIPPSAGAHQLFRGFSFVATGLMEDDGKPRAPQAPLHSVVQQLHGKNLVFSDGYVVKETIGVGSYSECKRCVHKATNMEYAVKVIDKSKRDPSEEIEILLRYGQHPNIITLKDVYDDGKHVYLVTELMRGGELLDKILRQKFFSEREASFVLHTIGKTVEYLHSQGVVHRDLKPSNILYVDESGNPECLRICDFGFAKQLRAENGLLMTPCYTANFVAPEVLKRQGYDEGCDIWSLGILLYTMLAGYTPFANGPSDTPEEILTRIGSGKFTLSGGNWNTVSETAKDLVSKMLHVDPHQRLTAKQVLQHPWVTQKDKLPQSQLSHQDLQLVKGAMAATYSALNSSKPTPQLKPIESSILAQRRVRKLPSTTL
Sequence of S6K1 (P23443 whole entry): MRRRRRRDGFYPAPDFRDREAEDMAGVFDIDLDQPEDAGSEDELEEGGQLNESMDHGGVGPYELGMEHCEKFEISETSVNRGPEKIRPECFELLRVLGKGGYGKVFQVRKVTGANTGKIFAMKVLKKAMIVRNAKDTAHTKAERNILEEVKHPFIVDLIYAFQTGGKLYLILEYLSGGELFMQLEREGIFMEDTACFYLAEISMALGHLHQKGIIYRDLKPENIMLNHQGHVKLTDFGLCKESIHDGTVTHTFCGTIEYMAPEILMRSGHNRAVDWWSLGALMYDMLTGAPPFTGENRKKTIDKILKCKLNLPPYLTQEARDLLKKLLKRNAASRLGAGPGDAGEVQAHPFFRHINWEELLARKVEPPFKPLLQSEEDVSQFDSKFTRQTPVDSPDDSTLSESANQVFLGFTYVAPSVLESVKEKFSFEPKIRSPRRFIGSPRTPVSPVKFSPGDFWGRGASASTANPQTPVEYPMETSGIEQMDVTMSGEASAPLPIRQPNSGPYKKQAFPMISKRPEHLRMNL

CN[C@@H]1C[C@H]2O[C@@](C)([C@@H]1OC)n1c3ccccc3c3c4c(c5c6ccccc6n2c5c31)C(=O)N[C@H]4O [UCN-01, 7-hydroxyl staurosporine]
percentage of kinase activity compared to control incubations, MAPKAP-K2 [1]: 60 ± 1%
inhibition of PDK1, recent reports [2]: low nM range
percentage of kinase activity compared to control incubations, ROCK-II [3]: 13 ± 2%
percentage of kinase activity compared to control incubations, PKA [4]: 27 ± 2%
percentage of kinase activity compared to control incubations, S6K1 [5]: 21 ± 4%
percentage of kinase activity compared to control incubations, CSK [6]: 58 ± 3%
percentage of kinase activity compared to control incubations, SAPK4/p38δ [7]: 100 ± 7%
percentage of kinase activity compared to control incubations, DYRK1α [8]: 15 ± 2%
percentage of kinase activity compared to control incubations, PDK1 [9]: 0 ± 1%
remaining activity at 1 µM [10]: 9 ± 1%
percentage of kinase activity compared to control incubations, PKCα [11]: 1 ± 0%
percentage of kinase activity compared to control incubations, AMPK [12]: 1 ± 1%
percentage of kinase activity compared to control incubations, MAPKAP-K1a [13]: 1 ± 1%
percentage of kinase activity compared to control incubations, MSK1 [14]: 11% and 11 ± 0%
percentage of kinase activity compared to control incubations, MKK1 [15]: 53 ± 1%
percentage of kinase activity compared to control incubations, SAPK2β/p38β2 [16]: 106 ± 4%
inhibition of Chk1, recent reports [17]: low nM range
percentage of kinase activity compared to control incubations, PHOS.KINASE [18]: 1 ± 2%
percentage of kinase activity compared to control incubations, GSK3β [19]: 25 ± 5%
percentage of kinase activity compared to control incubations, SAPK2α/p38 [20]: 107 ± 5%
percentage of kinase activity compared to control incubations, CK2 [21]: 102 ± 11%
percentage of kinase activity compared to control incubations, PRAK [22]: 89 ± 4%
percentage of kinase activity compared to control incubations, NEK6 [23]: 80 ± 7%
percentage of kinase activity compared to control incubations, CK1 [24]: 96 ± 0%
percentage of kinase activity compared to control incubations, CHK1 [25]: 1 ± 0%
percentage of kinase activity compared to control incubations, Lck [26]: 3 ± 1%
percentage of kinase activity compared to control incubations, SGK1 [27]: 25% and 22 ± 4%
percentage of kinase activity compared to control incubations, JNKSAPK1c [28]: 112 ± 6%
